One series concerns PCSK9 target site. Briefly: In vivo base editing with ABE mRNA and sgRNA targeting PCSK9. The arrangement: species or system Balb/c mice. As to conditions: dose 0.03 MPK (mg total RNA/kg) IV, formulation ratio 47.5:40:2.5:10, liver, 4 days after dosing. The method, then:
Lipid nanoparticle components are dissolved in 100% ethanol at specified lipid component molar ratios. mRNA encoding an adenine base editor and a chemically-modified sgRNA is dissolved at a mass ratio of 1:1 in 10 mM citrate, 100 mM NaCl, pH 4.0, resulting in a concentration of NA cargo of approximately 0.22 mg/mL. LNP preparations are formulated with molar ratios of either 50% Ionizable Lipid: 38.5% Cholesterol: 1.5% PEG2000-DMG: 10% DSPC or 47.5% Ionizable Lipid: 40% Cholesterol: 2.5% PEG2000-DMG: 10% DSPC both at a total lipid to NA molar ratio of 6.
LNP preparations are formed by microfluidic mixing of the lipid and NA solutions using a Precision Nanosystems NanoAssemblr Ignite Instrument, according to the manufacturer's protocol. A 3:1 ratio of aqueous to organic solvent is maintained during mixing using differential flow rates. After mixing, LNP preparations are collected, diluted in PBS (approximately 2:1 v/v), and further buffer exchange is conducted using dialysis in PBS at 4° C. for 8 to 24 hours against a 20 kDa filter. After this initial dialysis, each individual LNP preparation is characterized via dynamic light scattering (DLS) to measure size and polydispersity. pKa of a subpopulation of LNP preparations is measured via TNS assay. After dialysis, LNP preparations are sterile filtered using 0.22 micron sterile filter and stored at 4° C. for further use. In some embodiments, LNP preparations may be concentrated using 100 kDa Amicon filters per manufacturer's protocol.
Male Balb/C mice aged approximately 8-12 weeks are used in the experiments described herein. Each mouse is temporarily restrained, and LNP preparations are administered IV via tail vein injection. Age-matched mice are also used to administer vehicle (1×PBS) via tail vein injection as a control. Four to six days post-dose, tissues including liver, spleen, heart and muscle are collected (only liver and muscle (quardracept) are reported). Genomic DNA is isolated and fragmented and adapter-ligated using the Nextera DNA Flex Library Prep Kit (Illumina) using the 96-well plate Nextera indexing primers (Illumina), according to the manufacturer's instructions. Library size and concentration is confirmed by Fragment Analyzer (Agilent) and sent to Novogene for whole genome sequencing using an Illumina HiSeq.
For base editing, mRNA encoding an adenine base editor (ABE) and a guide RNA (sgRNA) targeting PCSK9 at 1:1 (mass ratio) are coencapsulated in LNP preparations as described herein. LNP preparations are administrated into Balb/c mice through tail vein injections at concentration of 0.03 mg total RNA/kg. […] Base editing is determined by performing targeted deep sequencing analysis at the PCSK9 target site using extracted genomic DNA.

A short description of series [1]: LNP characterization of base editor LNP preparations (DLS diameter, PDI, encapsulation efficiency). The format is physicochemical. As to conditions: Table E LNPs, formulation ratio 47.5:40:2.5:10, ABE mRNA/PCSK9 sgRNA. The essentials: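 Lipid mix in ethanol and base-editor mRNA plus modified sgRNA (1:1 by mass, pH 4.0 citrate) were microfluidically mixed at 3:1 aqueous:organic, lipid:NA molar ratio 6, then dialysed against PBS at 4° C for 8–24 h. Diameter and PDI were measured by DLS in PBS; encapsulation was derived from unlysed versus lysed LNPs by Qubit RNA quantitation.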

Take `CC/C=C\CCCC(CCC/C=C\CC)OC(=O)CCCCCC(=O)OCC(COC(=O)CCCCCC(=O)OC(CCC/C=C\CC)CCC/C=C\CC)COC(=O)NCCCn1ccnc1` [Compound (32), 1-{2-[({[3-(1H-imidazol-1-yl)propyl]carbamoyl}oxy)methyl]-3-({7-oxo-7-[(3Z,12Z)-pentadeca-3,12-dien-8-yloxy]heptanoyl}oxy)propyl} 7-(3Z,12Z)-pentadeca-3,12-dien-8-yl heptanedioate]: the “Liver Editing A->G (%)” value in the series with PCSK9 target site turned out to be 0.06%. For the same compound, in series [1], the “Diameter (nm)” value is listed as 81.94 nm and the “EE (%)” value worked out at 87.5%.

`CC/C=C\CCCC(CCC/C=C\CC)OC(=O)CCCCCC(=O)OCC(COC(=O)CCCCCC(=O)OC(CCC/C=C\CC)CCC/C=C\CC)COC(=O)OCCCN(CC)CC` [Compound (29), O1-[2-[3-(diethylamino)propoxycarbonyloxymethyl]-3-[7-[(Z)-1-[(Z)-hept-4-enyl]oct-5-enoxy]-7-oxo-heptanoyl]oxy-propyl] O7-[(Z)-1-[(Z)-hept-4-enyl]oct-5-enyl] heptanedioate]: the “Liver Editing A->G (%)” value with PCSK9 target site turned out to be 7.53%. In series [1], the “Diameter (nm)” value amounted to 65.7 nm, the “EE (%)” value was 96.55% and the “PDI (%)” value is on record as 11.9%.

For the compound `CC/C=C\CCCC(CCC/C=C\CC)OC(=O)CCCCCC(=O)OCC(COC(=O)CCCCCC(=O)OC(CCC/C=C\CC)CCC/C=C\CC)COC(=O)NCCN1CCN(C)CC1` [Compound (31), 01-[2-[[7-[(Z)-1-[(Z)-hept-4-enyl]oct-5-enoxy]-7-oxo-heptanoyl]oxymethyl]-3-[2-(4-methylpiperazin-1-yl)ethylcarbamoyloxy]propyl] O7-[(Z)-1-[(Z)-hept-4-enyl]oct-5-enyl] heptanedioate], the “Liver Editing A->G (%)” value with PCSK9 target site is 0.02%. Besides, in series [1], the “Diameter (nm)” value was 103.5 nm and the “EE (%)” value was determined as 93.42%.
